Some results are limits rather than exact numbers.

Chain of Human Factor D (P00746 26-253): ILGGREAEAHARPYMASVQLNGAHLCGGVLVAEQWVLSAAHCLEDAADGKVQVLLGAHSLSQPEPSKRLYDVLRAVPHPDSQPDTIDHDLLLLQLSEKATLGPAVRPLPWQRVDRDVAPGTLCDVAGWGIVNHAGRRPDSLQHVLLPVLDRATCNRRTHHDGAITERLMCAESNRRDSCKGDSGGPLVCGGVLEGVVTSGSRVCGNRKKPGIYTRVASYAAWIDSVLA

The assay has as its target Human Factor D (Homo sapiens (Human), UniProt P00746). In words: Human Factor D Assay. It counts as biochemical. The settings on record: Table 6; Factor D 80 nM, substrate Z-L-Lys-SBz; read-out: IC50. Put shortly:
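Thioester substrate Z-L-Lys-SBz (100 μM) with Ellman's reagent DTNB (100 μM) reports activity of 80 nM human serum-derived enzyme, kinetically at 405 nm over 30 min. Compound preincubated 5 min, room temperature, pH 7.5 Tris/1 M NaCl; IC50 by nonlinear fit of rates.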
In general, IC50 refers to the point on the concentration scale where inhibition reaches its midpoint. In the case of `CC(=O)c1nn(CC(=O)N2[C@H](C(=O)Nc3nc(Br)c(F)cc3C)C[C@@]3(C)C[C@@H]23)c2c(C)nc(-c3cnc(C)nc3)cc12` [Compound 209, (1R,3S,5R)-2-(2-(3-acetyl-7-methyl-5-(2-methylpyrimidin-5-yl)-1H-pyrazolo[3,4-c]pyridin-1-yl)acetyl)-N-(6-bromo-5-fluoro-3-methylpyridin-2-yl)-5-methyl-2-azabicyclo[3.1.0]hexane-3-carboxamide], the IC50 is < 1000 nM. As for `CC(=O)c1nn(CC(=O)N2[C@H](C(=O)Nc3nc(Br)ccc3C)C[C@@]3(C)C[C@@H]23)c2c(C)cc(-c3cnc(C)nc3)nc12` [Compound 210, (1R,3S,5R)-2-(2-(3-acetyl-7-methyl-5-(2-methylpyrimidin-5-yl)-1H-pyrazolo[4,3-b]pyridin-1-yl)acetyl)-N-(6-bromo-3-methylpyridin-2-yl)-5-methyl-2-azabicyclo[3.1.0]hexane-3-carboxamide], the concentration for half-maximal inhibition (IC50) was > 10000 nM. Regarding `NC(=O)c1cc(-c2cccnc2)n(CC(=O)N2C[C@H](F)C[C@H]2C(=O)Nc2cccc(Br)n2)n1` [Compound 211, 1-(2-((2S,4R)-2-((6-Bromopyridin-2-yl)carbamoyl)-4-fluoropyrrolidin-1-yl)-2-oxoethyl)-5-(pyridin-3-yl)-1H-pyrazole-3-carboxamide], the IC50 is < 1000 nM. Take `Cc1ccc(Br)nc1NC(=O)[C@@H]1C[C@@]2(C)C[C@H]2N1C(=O)Cn1nc(C(N)=O)cc1-c1ccco1` [Compound 212, (1R,3S,5R)—N-(6-Bromo-3-methylpyridin-2-yl)-2-(2-(3-carbamoyl-5-(furan-2-yl)-1H-pyrazol-1-yl)acetyl)-5-methyl-2-azabicyclo[3.1.0]hexane-3-carboxamide]: the IC50 was < 1000 nM.

For `Cc1ccc(Br)nc1NC(=O)[C@@H]1C[C@@]2(C)C[C@H]2N1C(=O)Cn1nc(-c2ccco2)cc1C(N)=O` [Compound 213, (1R,3S,5R)—N-(6-Bromo-3-methylpyridin-2-yl)-2-(2-(5-carbamoyl-3-(furan-2-yl)-1H-pyrazol-1-yl)acetyl)-5-methyl-2-azabicyclo[3.1.0]hexane-3-carboxamide], the IC50 was 1000 to 10000 nM. With `Cc1ccc(Br)nc1NC(=O)[C@@H]1C[C@@]2(C)C[C@H]2N1C(=O)Cn1nc(C(N)=O)cc1-c1cccs1` [Compound 214, (1R,3S,5R)—N-(6-Bromo-3-methylpyridin-2-yl)-2-(2-(3-carbamoyl-5-(thiophen-2-yl)-1H-pyrazol-1-yl)acetyl)-5-methyl-2-azabicyclo[3.1.0]hexane-3-carboxamide] the figure was < 1000 nM; with `Cc1ncc(-c2cc(C(N)=O)nn2CC(=O)N2C[C@H](F)C[C@H]2C(=O)Nc2cccc(Br)n2)cn1` [Compound 215, 1-(2-((2S,4R)-2-((6-Bromopyridin-2-yl)carbamoyl)-4-fluoropyrrolidin-1-yl)-2-oxoethyl)-5-(2-methylpyrimidin-5-yl)-1H-pyrazole-3-carboxamide], > 10000 nM; with `CC(=O)c1c2cc(-c3cnc(C)nc3)cc(C(F)(F)F)c2nn1CC(=O)N1[C@H](C(=O)Nc2nc(Br)ccc2C)C[C@@]2(C)C[C@@H]12` [Compound 217, (1R,3S,5R)-2-(2-(3-acetyl-5-(2-methylpyrimidin-5-yl)-7-(trifluoromethyl)-2H-indazol-2-yl)acetyl)-N-(6-bromo-3-methylpyridin-2-yl)-5-methyl-2-azabicyclo[3.1.0]hexane-3-carboxamide], > 10000 nM. The same measure for `CC(=O)c1nn(CC(=O)N2[C@H](C(=O)Nc3nc(Br)ccc3C)C[C@@]3(C)C[C@@H]23)c2cnc(-c3cnc4cc(C)nn4c3)cc12` [Compound 219, (1R,3S,5R)-2-(2-(3-acetyl-5-(2-methylpyrazolo[1,5-a]pyrimidin-6-yl)-1H-pyrazolo[3,4-c]pyridin-1-yl)acetyl)-N-(6-bromo-3-methylpyridin-2-yl)-5-methyl-2-azabicyclo[3.1.0]hexane-3-carboxamide]: < 1000 nM.

The values are drawn from US11084800B2 (Achillion Pharmaceuticals, Inc., priority 2017, dated 2021).
